Experimental findings from patent publication US12624019B2, “Indazole derivative, and preparation method therefor and use thereof” (Leadingtac Pharmaceutical (Shaoxing) Co., Ltd., priority 2020, dated 2026) are described below.

pIC50: −log10 of the molar value.

Data set [1] addresses T1, IRAK4 kinase protein in THP-1 cells (Homo sapiens, UniProt Q9NWZ3).
T1 construct: endogenous in cells; host or cells: THP-1 cells
T1 sequence (Q9NWZ3 1-460): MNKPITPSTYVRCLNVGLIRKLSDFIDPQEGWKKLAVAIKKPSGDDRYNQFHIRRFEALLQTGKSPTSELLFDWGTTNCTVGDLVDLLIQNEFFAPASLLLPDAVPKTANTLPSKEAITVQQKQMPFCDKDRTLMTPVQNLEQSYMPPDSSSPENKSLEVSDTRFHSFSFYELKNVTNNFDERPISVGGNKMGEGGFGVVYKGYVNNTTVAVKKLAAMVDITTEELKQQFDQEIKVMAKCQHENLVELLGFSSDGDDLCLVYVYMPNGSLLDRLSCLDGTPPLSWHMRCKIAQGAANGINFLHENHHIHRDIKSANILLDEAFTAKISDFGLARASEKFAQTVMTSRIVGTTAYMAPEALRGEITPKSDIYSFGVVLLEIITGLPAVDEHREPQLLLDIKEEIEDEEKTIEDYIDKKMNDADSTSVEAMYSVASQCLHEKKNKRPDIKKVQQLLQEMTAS
In words: Degradation of IRAK4 in THP-1 cells by Western Blot. It is filed as cell-based. Particulars: 24 hours; for Dmax / DC50: IRAK4 degradation in THP-1 cells; for Dmax: read-out: WB Dmax; for WB D(%) (300 nM) / WB D(%) (1000 nM): degradation percentage of IRAK4 in THP-1 cells; for WB D(%) (300 nM): compound 300 nM; for WB D(%) (1000 nM): compound 1000 nM; for DC50: read-out: WB DC50. As to the method:
Each well of the 24-well cell culture plate was inoculated with 0.95 mL THP-1 cells (stem cell bank of Chinese academy of sciences) with a cell density of 5×10^5 cells/well. The cell plate was placed in a 5% carbon dioxide incubator and cultured overnight at 37° C., then 50 μL compound in dimethyl sulfoxide was added. The final concentration of the compound was in the range of 1-3000 nM. After continuous cultivation for 24 hours, the cells were collected into a 1.5 mL centrifuge tube, centrifuged at 1000 rpm and 4° C. for 5 minutes. Cell precipitation was washed twice with 1×DPBS, resuspended cells were lysed with 200 μL lysate (cell lysate was Western and IP cell lysate (Beyotime), supplemented with 1 mM mixture of phenylmethylsulfonyl fluoride and protease inhibitor (Beyotime)), left on ice for 30 minutes, then centrifuged at 14000 g at 4° C. for 10 minutes, and the supernatant was taken to detect IRAK4 protein level by Western blot.
The total protein concentration in the supernatant of cell lysis was determined by BCA protein quantitative kit (Tiangen). According to the concentration of total protein detected by BCA, the supernatant was adjusted to […] with PBS and 5×SDS-PAGE protein loading buffer (Beyotime), bathed in water at 100° C. for 10 minutes, then placed in ice bath for 5 minutes, centrifuged at 14000 g and 4° C. for 5 minutes, and then collected as WB loading sample. Prefabricated glue (KeyGEN) was used for protein electrophoresis with a loading amount of 10 μL (total protein 2 μg). After Tris-MOPS-SDS electrophoresis solution (Adamas), 120V constant pressure electrophoresis was performed. After electrophoresis, the protein on the adhesive strip was transferred to PVDF membrane with a constant current of […] for 50 minutes. After the membrane was transferred, the membrane was added in 1×QuickBlock blocking buffer (Beyotime) and incubated for 30 minutes at room temperature. After blocking, PVDF membranes were incubated with IRAK4 primary antibody (Abcam) overnight at 4°, the membranes were washed with TBST buffer (2.4 g Tris, 8.8 g NaCl, 1.5 mL Tween 20, pH adjusted to 7.4, constant volume to 1 L) for 30 minutes, incubated with secondary antibody (Abcam) for 2 hours at room temperature, finally incubated with Clarity Western ECL Substrate (BIO-RAD) for 5 minutes for luminescence development, chemiluminescence imaging system (Clinx, chemiScope 6200 Touch) was used for development and protein mapping photography. The protein map was analyzed by Clinx chemiluminescence analysis software for grayscale values. Using the formula: grayscale correction value=(target protein grayscale value/corresponding internal reference grayscale value)×[…], the grayscale correction value of each sample was calculated. The degradation rate was calculated by comparing with the grayscale correction value of the control group. Furthermore, DC50 and Dmax values of the compound were obtained by the nonlinear curve fitting with the logarithmic concentration-inhibition rate by GraphPad Prism 7.

The target in data set [2] is T2, IRAK4 kinase (Homo sapiens, UniProt Q9NWZ3).
T2 sequence (Q9NWZ3 1-460): T1 sequence (Q9NWZ3 1-460)
In words: IRAK4 kinase activity test (KinEASE-STK HTRF kit). Particulars: IRAK4 kinase inhibition, 7 μM ATP, 37° C. 120 min. The class given is biochemical. As to the method:
KinEASE-STK Si serine/threonine kinase kit (Cisbio) was used to detect the inhibitory effect of the compound on IRAK4 kinase activity. The specific method was: the compound was dissolved in dimethyl sulfoxide, and then it was diluted with the buffer solution of the kit by equal gradient to make the final concentration range of the tested compound in the reaction system 10000 nM-0.038 nM, then 2.5 nM kinase, 1 μM biotinylated polypeptide substrate and 7 μM adenosine triphosphate (ATP) were added in sequence and incubated at 37° C. for 120 min. Subsequently, anti-phosphorylated serine/threonine antibody coupled with europium element compound and modified XL665 streptavidin were added to the reaction system to terminate the reaction. After incubating at room temperature for 1 h, the fluorescence intensity of each well at the emission wavelength of 620 nm and 665 nm and the excitation wavelength of 337 nm was determined in HTRF mode on the microplate reader EnVision (PerkinElmer), the ratio value was calculated using the formula Ratio=(665 nm/620 nm)×10^4. By comparing with the fluorescence intensity ratio of the control group, the inhibition rate of the compound at each concentration was calculated, and then the IC50 value of the compound was obtained by fitting the nonlinear curve with the logarithmic concentration-inhibition rate by GraphPad Prism 7.

A short description of data set [3]: Pharmacokinetic study in mice. Particulars: for AUC(0-t) / bioavailability / Cmax: male, SD, mouse, plasma; for bioavailability: gavage 100 mg/kg vs intravenous 1 mg/kg. The class given is in vivo, SD mice. As to the method:
The following experimental scheme was used to study the pharmacokinetic behavior of the compound of the present invention in mice and evaluate its pharmacokinetic characteristics.
Experimental scheme: 3 healthy SD mice, male, weighing […], were given 100 mg/kg compound by gavage with a volume of 10 mL/kg, prepared with […] (w/v). Before the test, they were fasted for 12 hours and freely drank water. Food was uniformly consumed 4 h after administration.
Three healthy SD mice, male, weighing […], were given 1 mg/kg compound intravenously with a volume of 5 mL/kg, prepared with 5% DMSO/15% solutol %80% PBS (w/v). Before the test, they were fasted for 12 hours and freely drank water. Food was uniformly consumed 4 h after administration.
0.1 mL of venous blood was taken through the submaxillary venous plexus of mice at 0.08 h, 0.25 h, 0.5 h, 1 h, 2 h, 4 h, 8 h, 24 h after gavage administration and 0.08 h, 0.25 h, 0.5 h, 1 h, 2 h, 4 h, 8 h, 24 h after intravenous administration, placed in a heparin test tube, centrifuged at 11000 rpm for 5 min, and plasma was separated, the concentration of compounds in plasma was determined by liquid chromatography-tandem mass spectrometry.

[4] abbreviates: po, gavage administration 100 mg/kg.

With `COc1cc2nn(C3CCN(CCOCCOc4ccc5c(c4)C(=O)N(C4CCC(=O)NC4=O)C5=O)CC3)cc2cc1NC(=O)c1cccc(C(F)(F)F)n1` (stereo not drawn) [Control group 1, N-(2-(1-(2-(2-((2-(2,6-dioxopiperidin-3-yl)-1,3-dioxoisoindolin-5-yl)oxy)ethoxy)ethyl)piperidin-4-yl)-6-methoxy-2H-indazol-5-yl)-6-(trifluoromethyl) pyridinecarboxamide, reference compound], in data set [1], the Dmax – broadly, the greatest extent of degradation seen – stood at 73.9%; the “WB D(%) (300 nM)” value stood at 73.9%; the “WB D(%) (1000 nM)” value was found to be 65.1%.
With `COc1cc2nn(C3CCN(CCC4CCN(c5ccc6c(c5)C(=O)N(C5CCC(=O)NC5=O)C6=O)CC4)CC3)cc2cc1NC(=O)c1cccc(C(F)(F)F)n1` (stereo not drawn) [Example 1, N-(2-(1-(2-(1-(2-(2,6-dioxopiperidin-3-yl)-1,3-dioxoisoindolin-5-yl)piperidin-4-yl)ethyl)piperidin-4-yl)-6-methoxy-2H-indazol-5-yl)-6-(trifluoromethyl) pyridinecarboxamide], in data set [1], the DC50 (as a rule, the concentration giving 50% degradation) turned out to be 25.1 nM; the Dmax was found to be 98.8%; the “WB D(%) (300 nM)” value worked out at 99.4%; the “WB D(%) (1000 nM)” value came out at 99.8%. The pIC50 (in general, the IC50 on a negative log10 scale, so that one unit is a factor of ten) in data set [2] is 7.31.
For `COc1cc2nn(C3CCN(CC4CCN(c5ccc6c(c5)C(=O)N(C5CCC(=O)NC5=O)C6=O)CC4)CC3)cc2cc1NC(=O)c1cccc(C(F)(F)F)n1` (stereo not drawn) [Example 2, N-(2-(1-((1-(2-(2,6-dioxopiperidin-3-yl)-1,3-dioxoisoindolin-5-yl)piperidin-4-yl)methyl)piperidin-4-yl)-6-methoxy-2H-indazol-5-yl)-6-(trifluoromethyl) pyridinecarboxamide], in data set [1], the DC50 turned out to be 15.7 nM, the Dmax turned out to be 90.5%, the “WB D(%) (300 nM)” value was found to be 90.5% and the “WB D(%) (1000 nM)” value was determined as 86.5%. In addition, in data set [3] (intravenous injection 1 mg/kg), the CL_pred worked out at 8.3 mL/min/kg, the Vss_pred is reported as 3.3 L/kg and the exposure AUC(0-t) (commonly the area under the concentration-time curve up to a stated or last time point) turned out to be 1920 ng·h/mL. Also, in data set [3] (po), the bioavailability (commonly the share of a dose that reaches the circulation, judged against a reference dose that is usually intravenous) was found to be 22.3%. Further, in data set [3] (setting [4]), the AUC(0-t) came to 22400 ng·h/mL and the concentration peaked (Cmax) at 1230 ng/mL. Also, the pIC50 in data set [2] was 7.03.
As for `COc1cc2nn(C3CCN(CCN4CCN(c5ccc6c(c5)C(=O)N(C5CCC(=O)NC5=O)C6=O)CC4)CC3)cc2cc1NC(=O)c1cccc(C(F)(F)F)n1` (stereo not drawn) [Example 3, N-(2-(1-(2-(4-(2-(2,6-dioxopiperidin-3-yl)-1,3-dioxoisoindolin-5-yl)piperazin-1-yl)ethyl)piperidin-4-yl)-6-methoxy-2H-indazol-5-yl)-6-(trifluoromethyl) pyridinecarboxamide], in data set [1], the DC50 is 9.3 nM, the Dmax amounted to 97.7%, the “WB D(%) (300 nM)” value was 96.7% and the “WB D(%) (1000 nM)” value is 96.4%. In data set [2], the pIC50 is 7.25.
Regarding `CC(C)(O)c1cc2nn(C3CCN(CC4CCN(c5ccc6c(c5)C(=O)N(C5CCC(=O)NC5=O)C6=O)CC4)CC3)cc2cc1NC(=O)c1cccc(C(F)(F)F)n1` (stereo not drawn) [Example 7, N-(2-(1-((1-(2-(2,6-dioxopiperidin-3-yl)-1,3-dioxoisoindolin-5-yl)piperidin-4-yl)methyl)piperidin-4-yl)-6-(2-hydroxyprop-2-yl)-2H-indazol-5-yl)-6-(trifluoromethyl) pyridinecarboxamide], in data set [1], the DC50 was 10.6 nM, the Dmax amounted to 80.2%, the “WB D(%) (300 nM)” value is given as 82.9% and the “WB D(%) (1000 nM)” value came out at 79.6%. In data set [3] (intravenous injection 1 mg/kg), this molecule gave a CL_pred of 5 mL/min/kg, a Vss_pred of 2.2 L/kg and an AUC(0-t) of 3110 ng·h/mL. In data set [3] (po), the bioavailability was found to be 13.4%. In data set [3] (setting [4]), the exposure AUC(0-t) was 41600 ng·h/mL and the Cmax (commonly the maximum level reached in the sampled fluid or tissue) worked out at 3260 ng/mL. Further, the pIC50 in data set [2] is 7.32.
As to `CC(C)(O)c1cc2nn(C3CCN(CC(C)(C)N4CCN(c5ccc6c(c5)C(=O)N(C5CCC(=O)NC5=O)C6=O)CC4)CC3)cc2cc1NC(=O)c1cccc(C(F)(F)F)n1` (stereo not drawn) [Example 9], in data set [1], the DC50 was determined as 12.5 nM, the Dmax came out at 79.1%, the “WB D(%) (300 nM)” value worked out at 81.1% and the “WB D(%) (1000 nM)” value stood at 74.4%. The same molecule gave a pIC50 in data set [2] of 7.49.
Take `CC(C)(O)c1cc2nn(C3CCN(CCC4CCC5(CC4)CCN(c4ccc6c(c4)C(=O)N(C4CCC(=O)NC4=O)C6=O)CC5)CC3)cc2cc1NC(=O)c1cccc(C(F)(F)F)n1` (stereo not drawn) [Example 12, N-(2-(1-(2-(3-(2-(2,6-dioxopiperidin-3-yl)-1,3-dioxoisoindolin-5-yl)-3-azaspiro[5.5]undec-9-yl)ethyl)piperidin-4-yl)-6-(2-hydroxyprop-2-yl)-2H-indazol-5-yl)-6-(trifluoromethyl) pyridinecarboxamide]: in data set [1], the DC50 is 18.3 nM, the Dmax is 99.8%, the “WB D(%) (300 nM)” value is reported as 97.4% and the “WB D(%) (1000 nM)” value worked out at 97.9%. The pIC50 in data set [2] was 7.22.
